In general, inhibition refers to how much of the control response was suppressed. A word on the pIC50: it is the IC50 on a negative log10 scale, so that one unit is a factor of ten. Low readings indicate a large IC50, high ones a small IC50.

Assay [1] addresses T1, Transthyretin (Homo sapiens, UniProt P02766). In words: Inhibition of recombinant wild-type Transthyretin (unknown origin) expressed in Escherichia coli expression system assessed as acid mediated fibril formation at 3.6 uM preincubated for 2 hrs followed by addition of acetate buffer solution and measured after 72 hrs by UV-vis spectrophotometry relative to control. The following applies: time 74.0 hrs, values are per cent of control.

Assay [2] concerns the target T1, Transthyretin. In words: Inhibition of recombinant wild-type Transthyretin (unknown origin) expressed in Escherichia coli expression system assessed as acid mediated fibril formation at 1.8 uM preincubated for 2 hrs followed by addition of acetate buffer solution and measured after 72 hrs by UV-vis spectrophotometry relative to control. The conditions noted are these: time 74.0 hrs, values are per cent of control.

Assay [3] deals with Transthyretin (Homo sapiens), P02766 [V50M]. In words: Inhibition of recombinant Transthyretin V30M mutant (unknown origin) expressed in Escherichia coli expression system assessed as acid mediated fibril formation at 3.6 uM preincubated for 2 hrs followed by addition of acetate buffer solution and measured after 72 hrs by UV-vis spectrophotometry relative to control. The following applies: time 74.0 hrs, values are per cent of control.

For assay [4] the test system is unchanged. Put plainly: Inhibition of recombinant Transthyretin V30M mutant (unknown origin) expressed in Escherichia coli expression system assessed as acid mediated fibril formation at 1.8 uM preincubated for 2 hrs followed by addition of acetate buffer solution and measured after 72 hrs by UV-vis spectrophotometry relative to control. The following applies: time 74.0 hrs, values are per cent of control.

The target of assay [5] is T1, Transthyretin. In words: Inhibition of recombinant wild-type Transthyretin (unknown origin) expressed in Escherichia coli expression system assessed as acid mediated fibril formation at 1.8 uM measured after 120 hrs by UV-vis spectrophotometry relative to control.
For assay [6], the target named is T1, Transthyretin.
Description: Covalent inhibition of urea-induced Transthyretin denaturation in human plasma preincubated for 1 hr followed by urea addition by Western blot analysis
For assay [7], the system named is Transthyretin (Homo sapiens), P02766 [V50M]. In words: Inhibition of recombinant Transthyretin V30M mutant (unknown origin) assessed as acid mediated fibril formation at 7.2 uM relative to control.

pIC50: −log10 of the molar value. Where only a bound is given, the exact number is not on record here.

Regarding `CCC(C)C(=O)Oc1c(Br)cc(/C=C/c2c(C)n[nH]c2C)cc1Br` (stereo unspecified), the response, % of control was 0.3% on Transthyretin [1], 2.2% at Transthyretin [2], 2.9% in assay [3] and 18% in assay [4].

Regarding `CCCC(=O)Oc1c(Br)cc(/C=C/c2c(C)n[nH]c2C)cc1Br`, the response, % of control worked out at 0.3% on Transthyretin [1], 2.7% on Transthyretin [2], 6.6% in assay [3] and 23.5% in assay [4].

On to `Cc1n[nH]c(C)c1/C=C/c1cc(Br)c(OC(=O)c2c(F)cccc2F)c(Br)c1`, for which the response, % of control on Transthyretin [1] amounted to 0.3%; on Transthyretin [2], 1.2%; in assay [3], 3.5%; in assay [4], 14.8%. Moreover, on Transthyretin [5], the inhibition is less than 5%. The pIC50 on Transthyretin [6] is 6.24.

With `Cc1n[nH]c(C)c1/C=C/c1cc(Br)c(OC(=O)c2c(F)cc(F)cc2F)c(Br)c1`, the response, % of control on Transthyretin [1] turned out to be 0.3%; on Transthyretin [2], 0.8%; in assay [3] it was 3%; in assay [4], 13.8%. For the same compound, the inhibition at Transthyretin [5] was less than 5%. This compound showed a pIC50 against Transthyretin [6] of 6.33.

As for `Cc1n[nH]c(C)c1/C=C/c1cc(Br)c(OC(=O)c2ccc(F)cc2)c(Br)c1`, the response, % of control on Transthyretin [1] stood at 0.2%; on Transthyretin [2], 5.7%; in assay [3], 3.9%; in assay [4] it was 15.7%. On Transthyretin [5], the inhibition was less than 5%. The compound further had a pIC50 on Transthyretin [6] of 6.35.

On to `Cc1n[nH]c(C)c1/C=C/c1cc(Br)c(O)c(Br)c1`, for which the response, % of control at Transthyretin [1] stood at 9.2%; on Transthyretin [2], 17.3%; in assay [3], 11.1%; in assay [4] it was 41.7%. Also, in assay [7], the inhibition came out at 39%.

Regarding `O=C(O)c1ccc2nc(-c3cc(Cl)cc(Cl)c3)oc2c1`, the response, % of control on Transthyretin [1] is 11.1%; on Transthyretin [2] it was 40.9%; in assay [3], 21%; in assay [4] it was 53.8%. In addition, the inhibition at Transthyretin [5] was found to be 46%.

The values are drawn from ChEMBL document CHEMBL5380798, “Novel Strategy To Inhibit Transthyretin Amyloidosis via the Synergetic Effect of Chemoselective Acylation and Noncovalent Inhibitor Release” (J Med Chem, 2023).
